“Also recorded” adds a separate entry of the source. No end group written: not given here.
Legend:
Bcl-2 [1] = target: T1, Bcl-2 (Homo sapiens, UniProt P10415, A37T/A38E/A42E/A43T/DEL46-86/G36R/G41E/P39A/P44E/P88R/P90T/S87E/V35N/V89E); experiment: Differential static light scattering (aggregation temperature) of Bcl-2; format: binding
T1 construct: made in house
Method: We also tested direct binding of CoA to recombinant Bcl-2 (see supporting information file PredTargets). Bcl-2, the founding member of the Bcl-2 family of regulator proteins that regulate cell death, is an important anti-apoptotic protein and is classified as an oncogene. Using differential static light scattering (DSLS) we observed that the aggregation temperature Tagg for 0.5 mg/ml apo-Bcl-2 was ˜57° C. […] The predicted CoA binding pocket by iDTP was adjacent to the Bax-BH binding site and without significant overlap (FIG. 5(b)). The presence of CoA was therefore not expected to displace bound Bax-BH3. […] Thus, our in vitro binding experiments strongly supported our computational binding predictions.
DSLS measured by the Stargazer system (Harbinger Biotechnology and Engineering Corporation, Markham, Canada) was used to assess the thermal stability of Bcl-2 in the absence or presence of CoA and control ligands. DSLS measures the specific aggregation temperature, Tagg at which a protein aggregates as a result of heat denaturing. Thus, DSLS provides the thermal stability of proteins, which is expected to vary in presence of ligands. Bcl-2 at 0.5 mg/mL was overlaid with mineral oil in a clear bottom 384-well black plate (Corning) were heated from 20 to 85° C. at 1° C./min and the light scattering was detected by a CCD camera every 0.5° C. in the absence or presence of varying concentrations of CoA, yielding the difference in aggregation temperature at a particular CoA concentration from apo Bc1-2 ΔTagg. Data were normalized and Kd values were calculated by plotting ΔTagg against the CoA concentration. Resulting data were fitted using a binding saturation single site model (GraphPad).
Differential static light scattering (DSLS). DSLS measured by the Stargazer system (Harbinger Biotechnology and Engineering Corporation, Markham, Canada) was used to assess the thermal stability of Bcl-2 in the presence or absence of CoA and to control ligands. DSLS measures the specific aggregation temperature, Tagg, at which a protein aggregates as a result of heat denaturing. Thus, DSLS provides proteins with thermal stability, which is expected to vary in the presence of ligands. Bcl-2 at 0.5 mg/mL was overlaid with mineral oil in a clear bottom 384-well black plate (Corning), and heated from 20 to 85° C. at 1° C./min; light scattering was detected by a CCD camera every 0.5° C. in the presence or absence of varying concentrations of CoA, yielding the difference in aggregation temperature at a particular CoA concentration from apo Bcl-2 ΔTagg. Data were normalized and Kd values were calculated by plotting ΔTagg against the CoA concentration. Resulting data were fitted using a binding-saturation single-site model (GraphPad).
Target sequence in this assay (P10415 with tags, fused parts or gaps with the stated changes): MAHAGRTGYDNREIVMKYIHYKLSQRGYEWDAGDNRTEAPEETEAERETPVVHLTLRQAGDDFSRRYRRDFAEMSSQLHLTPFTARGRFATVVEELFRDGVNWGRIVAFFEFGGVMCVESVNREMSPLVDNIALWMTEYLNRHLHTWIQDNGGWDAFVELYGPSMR

Bcl-2 [2] = target: T1, Bcl-2; experiment: Intrinsic tryptophan fluorescence quenching binding assay
Method: Bcl-2 tryptophans were excited at 280 nM and the emission intensity was measured at 320 nM. 10 μM Bcl-2 was incubated with various dilutions of CoA for 10 min before measurement. The fluorescence emitted was monitored using a PheraStar fluorescence plate reader in 96-well plates. Change in tryptophan fluorescence occurs due to conformational change in the protein, when it is bound to the ligand and the difference in the fluorescence intensity was recorded and analyzed. Data were normalized, and Kd values were calculated by fitting to a Binding-Saturation single site model with GraphPad.
Intrinsic tryptophan fluorescence quenching binding assay. Bcl-2 tryptophans were excited at 280 nM and the emission intensity was measured at 320 nM. 10 μM Bcl-2 was incubated with various dilutions of CoA for 10 min before measurement. Emitted fluorescence was monitored using a PheraStar fluorescence plate reader in 96-well plates. Change in tryptophan fluorescence occurs due to conformational changes in the protein when it is bound to the ligand; differences in the fluorescence intensity were recorded and analyzed. Data were normalized and Kd values were calculated by fitting to a Binding-Saturation single-site model with GraphPad.
Target sequence in this assay (P10415 with tags, fused parts or gaps with the stated changes): as above

Bcl-2 [3] = target: T1, Bcl-2; experiment: Fluorescence anisotropy competition: CoA against Bax-BH3 bound to Bcl-2; format: binding; conditions: 20 nM Bax-BH3, 400 nM Bcl-2, CoA up to 4.7 mM; listed as CoA
Description: Fluorescence anisotropy measurements.
Target sequence in this assay (P10415 with tags, fused parts or gaps with the stated changes, one chain of several): as the sequence (P10415 with tags, fused parts or gaps with the stated changes) above

hPPARγ-LBD [4] = target: T2, hPPARγ-LBD (Homo sapiens, UniProt P37231); experiment: Differential scanning fluorimetry (thermal shift) on hPPARγ-LBD; format: binding; parameters: human PPARγ (amino acids Glu196-Tyr477); made in house; conditions: for Tm of hPPARγ-LBD: 5 μM hPPARg
T2 sequence (P37231 196-477 isoform P37231-2): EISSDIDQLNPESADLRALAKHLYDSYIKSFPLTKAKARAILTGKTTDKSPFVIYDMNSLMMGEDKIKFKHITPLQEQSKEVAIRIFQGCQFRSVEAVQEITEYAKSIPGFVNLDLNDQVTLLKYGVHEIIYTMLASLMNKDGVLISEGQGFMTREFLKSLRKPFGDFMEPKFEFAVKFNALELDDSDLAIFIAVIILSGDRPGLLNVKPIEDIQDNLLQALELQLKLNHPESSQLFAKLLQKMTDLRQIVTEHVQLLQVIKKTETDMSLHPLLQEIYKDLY
Description: PPARγ is a nuclear hormone receptor regulating numerous biological functions including adipogenesis and cell differentiation. Its dysregulation is involved in the onset of diabetes and obesity. The interaction of the ligand binding domain (LBD) of human PPARγ (hPPARγ-LBD) with CoA is one of our most promising predictions, because this interaction achieved a high iDTP score and statistically significant co-citation index (SI Table 3). The pocket predicted by iDTP to bind CoA overlaps with the known ligand binding site of this receptor.
(§1) This method measures the protein unfolding based on fluorescence detection of the denatured form of the protein [59]. […] The plates were sealed with an optical sealing tape (Bio-Rad) and heated in an Mx3005P Q-PCR system (Stratagene) from 25 to 95° C. at 1° C. intervals. Fluorescence changes in the wells were monitored with a photomultiplier tube. The wavelengths for excitation and emission were 545 nm and 568 nm, respectively. The melting temperatures, Tm, were obtained by fitting the fluorescence data with a Boltzmann model using the GraphPad Prism software.
as §1, with “Differential scanning fluorimetry (DSF or Thermofluor). This” for “This”, “measures” for “measures the”, “(Pantoliano et al., 2001).” for “[59].”, “25° C.” for “25”, “using” for “using the”

hPPARγ-LBD [5] = target: T2, hPPARγ-LBD; experiment: Fluorescence anisotropy titrations of fluorescein-labelled coactivator/corepressor peptides with hPPARγ-LBD in presence of ligand
Description: Next, we used fluorescence anisotropy (FA) to characterize the interaction between hPPARγ-LBD and its natural partner proteins upon CoA binding. We measured the dissociation constant (Kd) between hPPARγ-LBD and fluorescein-labeled peptides derived from a coactivator protein (PGC1) and two corepressor proteins (NCoR and SMRT). […] If an increasing molar excess of the ligand has an increasing influence on the Kd of the fluorescently labeled coactivator/corepressor, then we can infer ligand binding, because the ligand disturbs binding to coactivators or corepressors.
Binding affinities of the fluorescent peptides for hPPARγ LBD were measured in the presence or absence of ligands using a Safire2 microplate reader (TECAN). For the fluorescence-labeled peptides, excitation wavelength was set at 470 nm and emission measured at 530 nm. The reported data are the average of independent experiments and error bars correspond to standard deviations. The buffer solution for assays was 20 mM Tris-HCl pH 7.5, 150 mM NaCl, 1 mM EDTA, 5 mM dithiothreitol, and 10% (v/v) glycerol. The measurements were initiated at 40 μM of the protein, and then the sample was diluted successively by a factor of 2 with the buffer until the lowest protein concentration reached 9.7 nM. Fluorescent peptides were added to the protein samples at 4 nM, allowing establishment of the titration curve. Ligands, when added, were at final concentration of 80 μM.
Binding affinities of the fluorescent peptides for hPPARγ LBD were measured in the presence or absence of ligands using a Safire2 microplate reader (TECAN). Fluorescent-labeled peptides were measured using an excitation wavelength of 470 nm; emission was measured at 530 nm. Data are the average of independent experiments and error bars correspond to standard deviations. The buffer solution for assays consisted of 20 mM Tris-HCl pH 7.5, 150 mM NaCl, 1 mM EDTA, 5 mM dithiothreitol, and 10% (v/v) glycerol. Measurements began at 40 μM of the protein, followed by successive two-fold sample dilutions with buffer, until reaching the lowest protein concentration (9.7 nM). Fluorescent peptides were added to the protein samples at 4 nM to allow the establishment of the titration curve. Added ligands were at a final concentration of 80 μM.

[6] = target: T3, chimeric human Bcl-2 (with the internal loop 51-91 removed and residues 35-50 replaced by residues 33-48 of … (human; mouse, UniProt P10415 1-34; Q64373 33-48; P10415 92-207); experiment: fluorescence anisotropy (FA), same experiment as FIG. 5(a), rounded
T3 construct: also called recombinant Bcl-2; Bc1-2
T3 sequence (P10415 other isoform, or with tags, fused parts or gaps mutant limits assumed): as the sequence (P10415 with tags, fused parts or gaps with the stated changes) above

[7] = target: T3, chimeric human Bcl-2 (with the internal …); experiment: fluorescence anisotropy of labeled Bax-BH3 against Bcl-2 concentration, single binding site model
[8] = target: T3, chimeric human Bcl-2 (with the internal …); experiment: DSLS, aggregation temperature of 0.5 mg/mL Bcl-2 with 400 nM peptide (apo Bcl-2 56.85 ± 0.14)
[9] = target: T3, chimeric human Bcl-2 (with the internal …); experiment: differential static light scattering (DSLS), aggregation temperature of 0.5 mg/ml Bcl-2
[10] = target: T3, chimeric human Bcl-2 (with the internal …); experiment: DSLS, aggregation temperature of 0.5 mg/mL Bcl-2 with 1 uM peptide (apo Bcl-2 56.85 ± 0.14); negative control

LSDAMETSSLRDALE [scrambled LD4 peptide, scrambled version of the Bcl-2 ligand LD4, negative control, reference compound]
effect on Tagg of Bcl-2 (Bcl-2 [1]; 0.5 mg/ml Bcl-2, 1 μM peptide (negative control)): did not alter Tagg

QDASTKKLSECLRRIGDELDSNMELQRMIAD [Bax-BH3 peptide, reference compound]
Tagg of Bcl-2 (Bcl-2 [1]; 0.5 mg/mL Bcl-2, 400 nM ligand): 67.30 ± 1.02 °C | Tagg of Bcl-2 (Bcl-2 [1]; 0.5 mg/mL Bcl-2, 400 nM ligand, listed as Bax-BH3): 67 °C

CC(C)(COP(=O)(O)OP(=O)(O)OC[C@H]1O[C@@H](n2cnc3c(N)ncnc32)[C@H](O)[C@@H]1OP(=O)(O)O)[C@@H](O)C(=O)NCCC(=O)NCCS [Coenzyme A]
Tagg of Bcl-2 (Bcl-2 [1]; 0.5 mg/mL Bcl-2, 0.1 mM ligand): 57.65 ± 0.19 °C | Tagg of Bcl-2 (Bcl-2 [1]; 0.5 mg/mL Bcl-2, 0.25 mM ligand): 59.72 ± 1.011 °C | Tagg of Bcl-2 (Bcl-2 [1]; 0.5 mg/mL Bcl-2, 0.5 mM ligand): 59.83 ± 0.21 °C | Tagg of Bcl-2 (Bcl-2 [1]; 0.5 mg/mL Bcl-2, 0.75 mM ligand): 60.49 ± 0.46 °C | Tagg of Bcl-2 (Bcl-2 [1]; 0.5 mg/mL Bcl-2, 1 mM ligand): 60.88 ± 0.46 °C | Tagg of Bcl-2 (Bcl-2 [1]; 0.5 mg/mL Bcl-2, 1.5 mM ligand): 61.12 ± 0.58 °C | Tagg of Bcl-2 (Bcl-2 [1]; 0.5 mg/mL Bcl-2, 2 mM ligand): 61.25 ± 0.66 °C | Tagg of Bcl-2 (Bcl-2 [1]; 0.5 mg/mL Bcl-2, 3 mM ligand): 61.78 ± 0.45 °C | Tagg of Bcl-2 reached with increasing ligand concentrations (Bcl-2 [1]; 0.5 mg/ml Bcl-2, increasing concentrations of CoA): up to 62 °C | Kd (Bcl-2 [1]; DSLS thermal stability of Bcl-2, read-out: Kd from ΔTagg versus concentration, single binding site model): 320 ± 130 µM | Kd (Bcl-2 [2]; 10 μM Bcl-2, increasing CoA concentrations, read-out: Kd from tryptophan fluorescence quenching, single binding site model): 380 µM | Kd (Bcl-2 [2]; summary value in discussion, read-out: Kd for recombinant Bcl-2 in vitro): ~350 µM | displacement of Bax-BH3 from Bcl-2 (fluorescence anisotropy/polarization) (Bcl-2 [3]): did not reduce the FA; also recorded: without displacing Bax-BH3; also recorded: unable to displace | Tm of hPPARγ-LBD (hPPARγ-LBD [4]; 35 μM ligand): 46.6 °C | Tm of hPPARγ-LBD (hPPARγ-LBD [4]; 70 μM ligand): 46.5 °C | Tm of hPPARγ-LBD (hPPARγ-LBD [4]; 140 μM ligand): 45.5 °C | Tm of hPPARγ-LBD (hPPARγ-LBD [4]; 280 μM ligand): 41.7 °C | Tm of hPPARγ-LBD (hPPARγ-LBD [4]; 1400 μM ligand): 27.5 °C | lowering of hPPARγ-LBD Tm compared to the apo-protein (hPPARγ-LBD [4]; seven molar excess of ligand): 0.8 °C | Kd (hPPARγ-LBD [5]): < 500 µM | nature of the ligand-hPPARγ-LBD interaction (hPPARγ-LBD [5]; inferred from effect on coactivator and corepressor binding): neutral antagonist | effect on affinity of hPPARγ-LBD for corepressors NCoR and SMRT (hPPARγ-LBD [5]; two to ten molar excess): lowered the affinity | effect on affinity of hPPARγ-LBD for the coactivator PGC1 (hPPARγ-LBD [5]; two to ten molar excess (CD5577: two molar excess)): lowered the affinity

B1: fluorescence-labeled peptide QDASTKKLSECLRRIGDELDSNMELQRMIAD corresponding to Bax-BH3 (peptide)
peptide: QDASTKKLSECLRRIGDELDSNMELQRMIAD
modifications: also: fluorescein label, position not given here
notes: Bought from Genscript; also called Bax-BH3 peptide
Kd [6]: 0.128 µM | Kd [7]: ~0.128 µM | Tagg (° C.) [8]: 67.3 ° C.

B2: scrambled LD4 peptide (LSDAMETSSLRDALE, a scrambled version of the Bcl-2 ligand LD4) (peptide)
peptide: LSDAMETSSLRDALE
notes: Negative control peptide, bought from Genscript; also called Scramble LD4 peptide
binding result [9]: no binding (tested: 1 µM) | Tagg (° C.) [10]: 57 ° C.
